Source: patent US12171230B2, “Herbicidal compositions” (Bayer Aktiengesellschaft, priority 2018, dated 2024)

What was measured:
Format in all cases: in vivo
[1] = tested on: Kochia scoparia; assay: Post-emergence herbicidal action against Kochia scoparia
Text: (§1) The following abbreviations are used in the description and the tables that follow: • g of a.i./ha=grams of active substance (active ingredient) (=100% active compound) per hectare; • The sum total of the effects of the individual applications is reported under E^A; • expected values according to Colby are each reported under E^C.
(§2) The rating period is reported in days after application (DAT).

[2] = tested on: Pharbitis purpurea; assay: Post-emergence herbicidal action against Pharbitis purpurea
Method: (§3) When the observed efficacies exceed the formal sum total of the values of the tests with individual applications, they also exceed the expected value according to Colby, which is calculated using the formula below and is likewise regarded as an indication of synergism (cf. S. R. Colby; in Weeds 15 (1967) p. 20 to 22): E^C=A+B−([…])
(§4) Here: • A=efficacy of the active compound (A) in % at an application rate of a g a.i./ha; • B=efficacy of the active compound (B) in % at an application rate of b g a.i./ha; • E^C=expected value of the effect of the combination (A)+(B) in % at the combined application rate a+b g a.i./ha.
(§5) Seeds or rhizome pieces of mono- and dicotyledonous weeds are placed in sandy loam in pots, covered with soil and grown in a greenhouse under good growth conditions (temperature, air humidity, water supply). Three weeks after sowing, the test plants were treated at the three-leaf stage with the compositions according to the invention. The compositions according to the invention formulated as spray powders or as emulsion concentrates were sprayed onto the green plant parts in various dosages with an application rate of 300 to 800 l/ha of water (equivalent). After the test plants have been left to stand in the greenhouse under optimal growth conditions for about 3 to 4 weeks, the action of the preparations is scored visually in comparison to untreated controls. The compositions according to the invention also have good post-emergence herbicidal activity against a broad spectrum of economically important gramineous and broadleaf weeds.

[3] = tested on: Brachiaria platyphylla; assay: Post-emergence herbicidal action against Brachiaria platyphylla
Method: as §3, §4, §5

[4] = tested on: Sorghum halepense; assay: Post-emergence herbicidal action against Sorghum halepense; settings: 450 g of a.i./ha
Method: as §3, §4, §5

[5] = tested on: Bidens pilosa; assay: Post-emergence herbicidal action against Bidens pilosa
Method: as §3, §4, §5

[6] = tested on: Setaria viridis; assay: Post-emergence herbicidal action against Setaria viridis; settings: 50 g of a.i./ha
Method: as §3, §4, §5

[7] = tested on: Digitaria sanguinalis; assay: Post-emergence herbicidal action against Digitaria sanguinalis
Method: as §3, §4, §5

[8] = tested on: Abutilon theophrasti; assay: Post-emergence herbicidal action against Abutilon theophrasti
Text: as §1, §2

[9] = tested on: Alopecurus myosuroides; assay: Post-emergence herbicidal action against Alopecurus myosuroides
[10] = tested on: Lamium purpureum; assay: Post-emergence herbicidal action against Lamium purpureum
Procedure, shortened: (§6)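 Greenhouse pot test: three-leaf-stage plants, three weeks from sowing, sprayed with spray-powder or emulsion-concentrate formulations at several dosages (300 to 800 l/ha water). Efficacy rated visually against untreated plants some 3 to 4 weeks later, with Colby formula giving expected combination effect.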

[11] = tested on: Bromus sterilis; assay: Post-emergence herbicidal action against Bromus sterilis
[12] = tested on: Matricaria inodora; assay: Post-emergence herbicidal action against Matricaria inodora
[13] = tested on: Poa annua; assay: Post-emergence herbicidal action against Poa annua
Procedure, shortened: as §6

[14] = tested on: Galium aparine; assay: Post-emergence herbicidal action against Galium aparine
Procedure, shortened: as §6

[15] = tested on: Lolium rigidum (resistant biotype); assay: Post-emergence herbicidal action against Lolium rigidum (resistant biotype)
[16] = tested on: Phalaris minor; assay: Post-emergence herbicidal action against Phalaris minor
[17] = tested on: Centaurea cyano; assay: Post-emergence herbicidal action against Centaurea cyano; settings: 50 g of a.i./ha
Procedure, shortened: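 Formulations (spray powders or emulsion concentrates) applied at various doses onto foliage using 300 to 800 l/ha water; plants treated at three-leaf stage, three weeks post-sowing in sandy loam under greenhouse conditions.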

[18] = tested on: Viola tricolor; assay: Post-emergence herbicidal action against Viola tricolor
[19] = tested on: Veronica hederifolia; assay: Post-emergence herbicidal action against Veronica hederifolia; settings: 14 DAT
[20] = tested on: Lolium rigidum; assay: Post-emergence herbicidal action against Lolium rigidum
[21] = tested on: Brachiaria plantaginea; assay: Post-emergence herbicidal action against Brachiaria plantaginea; settings: 30 g of a.i./ha
Text: as §1, §2

In the case of `CCc1cccc(C)c1N(C(=O)CCl)[C@@H](C)COC` [(B2.64) S-Metolachlor], the “Herbicidal action 21 DAT against Kochia scoparia” value ([1]; 150 g of a.i./ha) is reported as 0%, the “Herbicidal action 21 DAT against Kochia scoparia” value ([1]; 450 g of a.i./ha) is reported as 10% and the “Herbicidal action 21 DAT against Pharbitis purpurea” value ([2]; 150 g of a.i./ha) is reported as 0%. For the same molecule, the “Herbicidal action 21 DAT against Pharbitis purpurea” value ([2]; 450 g of a.i./ha) was 10%, the “Herbicidal action 21 DAT against Brachiaria platyphylla” value ([3]; 150 g of a.i./ha) was 10% and the “Herbicidal action 21 DAT against Brachiaria platyphylla” value ([3]; 450 g of a.i./ha) was 25%. The “Herbicidal action 21 DAT against Sorghum halepense” value [4] was 40%, the “Herbicidal action 21 DAT against Bidens pilosa” value ([5]; 150 g of a.i./ha) was 10% and the “Herbicidal action 21 DAT against Bidens pilosa” value ([5]; 450 g of a.i./ha) was 20%. The “Herbicidal action 21 DAT against Setaria viridis” value [6] was 30%, the “Herbicidal action 21 DAT against Digitaria sanguinalis” value ([7]; 50 g of a.i./ha) was 10% and the “Herbicidal action 21 DAT against Digitaria sanguinalis” value ([7]; 150 g of a.i./ha) was 40%. For the same molecule, the “Herbicidal action 21 DAT against Abutilon theophrasti” value ([8]; 150 g of a.i./ha) was 0% and the “Herbicidal action 21 DAT against Abutilon theophrasti” value ([8]; 450 g of a.i./ha) was 10%.
In the case of `N#Cc1cc(Br)c(O)c(Br)c1` [(B3.1) Bromoxynil], the “Herbicidal action against Alopecurus myosuroides” value ([9]; 14 DAT, 150 g of a.i./ha) is reported as 15%, the “Herbicidal action against Alopecurus myosuroides” value ([9]; 14 DAT, 450 g of a.i./ha) is reported as 25% and the “Herbicidal action against Alopecurus myosuroides” value ([9]; 28 DAT, 150 g of a.i./ha) is reported as 15%. The “Herbicidal action against Alopecurus myosuroides” value ([9]; 28 DAT, 450 g of a.i./ha) was 25%, the “Herbicidal action against Lamium purpureum L.” value ([10]; 14 DAT, 150 g of a.i./ha) was 15% and the “Herbicidal action against Lamium purpureum L.” value ([10]; 14 DAT, 450 g of a.i./ha) was 40%. The “Herbicidal action against Lamium purpureum L.” value ([10]; 28 DAT, 150 g of a.i./ha) was 25%, the “Herbicidal action against Lamium purpureum L.” value ([10]; 28 DAT, 450 g of a.i./ha) was 25% and the “Herbicidal action against Bromus sterilis” value ([11]; 14 DAT, 50 g of a.i./ha) was 0%. For the same molecule, the “Herbicidal action against Bromus sterilis” value ([11]; 14 DAT, 150 g of a.i./ha) was 10%, the “Herbicidal action against Bromus sterilis” value ([11]; 14 DAT, 450 g of a.i./ha) was 10% and the “Herbicidal action against Bromus sterilis” value ([11]; 28 DAT, 150 g of a.i./ha) was 15%. The “Herbicidal action against Bromus sterilis” value ([11]; 28 DAT, 450 g of a.i./ha) was 20%, the “Herbicidal action against Matricaria inodora” value ([12]; 14 DAT, 50 g of a.i./ha) was 40% and the “Herbicidal action against Matricaria inodora” value ([12]; 14 DAT, 450 g of a.i./ha) was 85%. The “Herbicidal action against Matricaria inodora” value ([12]; 28 DAT, 50 g of a.i./ha) was 15%, the “Herbicidal action against Matricaria inodora” value ([12]; 28 DAT, 450 g of a.i./ha) was 80% and the “Herbicidal action against Poa annua L.” value ([13]; 14 DAT, 150 g of a.i./ha) was 15%. The “Herbicidal action against Poa annua L.” value ([13]; 14 DAT, 450 g of a.i./ha) was 20%, the “Herbicidal action against Poa annua L.” value ([13]; 28 DAT, 150 g of a.i./ha) was 15% and the “Herbicidal action against Poa annua L.” value ([13]; 28 DAT, 450 g of a.i./ha) was 25%. The “Herbicidal action against Galium aparine” value ([14]; 14 DAT, 50 g of a.i./ha) was 20%, the “Herbicidal action against Galium aparine” value ([14]; 14 DAT, 150 g of a.i./ha) was 30% and the “Herbicidal action against Galium aparine” value ([14]; 14 DAT, 450 g of a.i./ha) was 50%. The “Herbicidal action against Galium aparine” value ([14]; 28 DAT, 450 g of a.i./ha) was 75%, the “Herbicidal action against Lolium rigidum (resistant biotype)” value (“Herbicidal action … (resistant biotype)” below) ([15]; 14 DAT, 150 g of a.i./ha) was 0% and the “Herbicidal action … (resistant biotype)” value ([15]; 14 DAT, 450 g of a.i./ha) was 15%. For the same molecule, the “Herbicidal action … (resistant biotype)” value ([15]; 28 DAT, 150 g of a.i./ha) was 10%, the “Herbicidal action … (resistant biotype)” value ([15]; 28 DAT, 450 g of a.i./ha) was 20% and the “Herbicidal action against Phalaris minor” value ([16]; 14 DAT, 50 g of a.i./ha) was 0%. For the same molecule, the “Herbicidal action against Phalaris minor” value ([16]; 14 DAT, 150 g of a.i./ha) was 10%, the “Herbicidal action against Phalaris minor” value ([16]; 14 DAT, 450 g of a.i./ha) was 15% and the “Herbicidal action against Phalaris minor” value ([16]; 28 DAT, 150 g of a.i./ha) was 0%. For the same molecule, the “Herbicidal action against Phalaris minor” value ([16]; 28 DAT, 450 g of a.i./ha) was 15%, the “Herbicidal action against Centaurea cyanus” value ([17]; 14 DAT) was 30% and the “Herbicidal action against Centaurea cyanus” value ([17]; 28 DAT) was 10%. For the same molecule, the “Herbicidal action against Viola tricolor” value ([18]; 14 DAT, 50 g of a.i./ha) was 15%, the “Herbicidal action against Viola tricolor” value ([18]; 14 DAT, 150 g of a.i./ha) was 50% and the “Herbicidal action against Viola tricolor” value ([18]; 14 DAT, 450 g of a.i./ha) was 30%. For the same molecule, the “Herbicidal action against Viola tricolor” value ([18]; 28 DAT, 50 g of a.i./ha) was 25%, the “Herbicidal action against Viola tricolor” value ([18]; 28 DAT, 150 g of a.i./ha) was 40% and the “Herbicidal action against Viola tricolor” value ([18]; 28 DAT, 450 g of a.i./ha) was 15%. For the same molecule, the “Herbicidal action against Veronica hederifolia” value ([19]; 150 g of a.i./ha) was 0%, the “Herbicidal action against Veronica hederifolia” value ([19]; 450 g of a.i./ha) was 20% and the “Herbicidal action against Lolium rigidum” value ([20]; 14 DAT, 150 g of a.i./ha) was 0%. The “Herbicidal action against Lolium rigidum” value ([20]; 14 DAT, 450 g of a.i./ha) was 15%, the “Herbicidal action against Lolium rigidum” value ([20]; 28 DAT, 150 g of a.i./ha) was 10% and the “Herbicidal action against Lolium rigidum” value ([20]; 28 DAT, 450 g of a.i./ha) was 20%.
In the case of `COc1c(Cl)ccc(-c2nc(C(=O)O)c(Cl)c(N)c2F)c1F` [(B5.23) Florpyrauxifen], the “Herbicidal action 28 DAT [%] against Brachiaria plantaginea” value [21] is reported as 40%.
